# Test results as given in patent publication US9938281B2 (Merck Sharp & Dohme Corp., priority 2012, dated 2018).
# What was measured:
# PI3K-alpha = target: T1, PI3K-alpha (Homo sapiens, UniProt P42336); assay: HTRF PI3K biochemical assay, alpha isoform; conditions: ratio PI3K-alpha IC50 value / PI3K-delta IC50 value
# T1 construct: purchased Upstate; Millipore 14-602
# PI3K-delta = target: T2, PI3K-delta (Homo sapiens, UniProt O00329); assay: HTRF PI3K biochemical assay, delta isoform; conditions: form screened (neutral or TFA salt) given, read-out: PI3Kdelta IC50
# T2 construct: purchased Upstate; Millipore 14-604
# T2 sequence (O00329 whole entry, canonical isoform): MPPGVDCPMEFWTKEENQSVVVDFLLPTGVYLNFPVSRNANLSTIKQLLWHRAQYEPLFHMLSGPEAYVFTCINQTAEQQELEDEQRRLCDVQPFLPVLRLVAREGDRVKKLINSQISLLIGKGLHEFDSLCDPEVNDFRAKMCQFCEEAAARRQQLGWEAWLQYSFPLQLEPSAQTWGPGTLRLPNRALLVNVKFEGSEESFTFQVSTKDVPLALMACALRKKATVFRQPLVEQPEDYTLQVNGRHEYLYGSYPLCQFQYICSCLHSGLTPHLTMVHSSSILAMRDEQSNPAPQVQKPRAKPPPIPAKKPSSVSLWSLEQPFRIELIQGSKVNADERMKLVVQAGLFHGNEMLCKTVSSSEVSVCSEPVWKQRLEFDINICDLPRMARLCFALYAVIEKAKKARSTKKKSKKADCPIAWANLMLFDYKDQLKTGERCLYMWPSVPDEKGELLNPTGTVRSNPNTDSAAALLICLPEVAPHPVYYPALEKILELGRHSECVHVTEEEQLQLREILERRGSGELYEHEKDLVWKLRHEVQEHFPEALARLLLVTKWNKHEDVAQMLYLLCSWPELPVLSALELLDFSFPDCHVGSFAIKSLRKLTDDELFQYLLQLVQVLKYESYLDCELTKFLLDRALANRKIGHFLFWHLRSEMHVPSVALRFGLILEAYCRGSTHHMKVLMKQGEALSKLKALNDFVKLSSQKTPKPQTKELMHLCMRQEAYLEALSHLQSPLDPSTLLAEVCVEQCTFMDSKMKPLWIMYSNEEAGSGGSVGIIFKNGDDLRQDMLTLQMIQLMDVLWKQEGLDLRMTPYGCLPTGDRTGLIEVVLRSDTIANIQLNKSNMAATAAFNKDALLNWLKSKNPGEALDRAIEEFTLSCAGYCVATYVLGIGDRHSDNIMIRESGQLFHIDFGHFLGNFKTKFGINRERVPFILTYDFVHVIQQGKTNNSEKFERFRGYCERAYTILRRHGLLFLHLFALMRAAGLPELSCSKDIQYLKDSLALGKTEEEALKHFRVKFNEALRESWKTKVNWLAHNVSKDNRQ
# T2 sequence (P27986 whole entry partner, canonical isoform): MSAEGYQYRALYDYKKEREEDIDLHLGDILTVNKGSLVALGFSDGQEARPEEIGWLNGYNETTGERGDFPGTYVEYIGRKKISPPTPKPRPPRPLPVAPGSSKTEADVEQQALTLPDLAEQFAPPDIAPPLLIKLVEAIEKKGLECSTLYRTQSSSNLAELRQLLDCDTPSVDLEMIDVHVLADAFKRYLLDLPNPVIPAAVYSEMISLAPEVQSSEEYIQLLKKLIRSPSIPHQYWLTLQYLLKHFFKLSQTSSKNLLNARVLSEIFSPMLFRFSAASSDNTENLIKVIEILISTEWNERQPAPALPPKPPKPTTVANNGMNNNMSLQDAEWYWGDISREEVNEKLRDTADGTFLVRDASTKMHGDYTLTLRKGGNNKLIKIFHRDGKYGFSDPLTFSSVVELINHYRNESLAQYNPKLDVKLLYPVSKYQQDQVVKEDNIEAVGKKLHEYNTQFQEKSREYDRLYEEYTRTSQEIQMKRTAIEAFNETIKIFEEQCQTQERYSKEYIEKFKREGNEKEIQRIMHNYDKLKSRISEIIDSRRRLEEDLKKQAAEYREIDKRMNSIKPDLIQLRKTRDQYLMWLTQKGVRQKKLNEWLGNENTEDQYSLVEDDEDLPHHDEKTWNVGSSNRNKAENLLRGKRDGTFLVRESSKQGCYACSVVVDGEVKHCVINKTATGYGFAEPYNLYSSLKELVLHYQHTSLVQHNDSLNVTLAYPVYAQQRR
# T1 sequence (P42336 whole entry, canonical isoform): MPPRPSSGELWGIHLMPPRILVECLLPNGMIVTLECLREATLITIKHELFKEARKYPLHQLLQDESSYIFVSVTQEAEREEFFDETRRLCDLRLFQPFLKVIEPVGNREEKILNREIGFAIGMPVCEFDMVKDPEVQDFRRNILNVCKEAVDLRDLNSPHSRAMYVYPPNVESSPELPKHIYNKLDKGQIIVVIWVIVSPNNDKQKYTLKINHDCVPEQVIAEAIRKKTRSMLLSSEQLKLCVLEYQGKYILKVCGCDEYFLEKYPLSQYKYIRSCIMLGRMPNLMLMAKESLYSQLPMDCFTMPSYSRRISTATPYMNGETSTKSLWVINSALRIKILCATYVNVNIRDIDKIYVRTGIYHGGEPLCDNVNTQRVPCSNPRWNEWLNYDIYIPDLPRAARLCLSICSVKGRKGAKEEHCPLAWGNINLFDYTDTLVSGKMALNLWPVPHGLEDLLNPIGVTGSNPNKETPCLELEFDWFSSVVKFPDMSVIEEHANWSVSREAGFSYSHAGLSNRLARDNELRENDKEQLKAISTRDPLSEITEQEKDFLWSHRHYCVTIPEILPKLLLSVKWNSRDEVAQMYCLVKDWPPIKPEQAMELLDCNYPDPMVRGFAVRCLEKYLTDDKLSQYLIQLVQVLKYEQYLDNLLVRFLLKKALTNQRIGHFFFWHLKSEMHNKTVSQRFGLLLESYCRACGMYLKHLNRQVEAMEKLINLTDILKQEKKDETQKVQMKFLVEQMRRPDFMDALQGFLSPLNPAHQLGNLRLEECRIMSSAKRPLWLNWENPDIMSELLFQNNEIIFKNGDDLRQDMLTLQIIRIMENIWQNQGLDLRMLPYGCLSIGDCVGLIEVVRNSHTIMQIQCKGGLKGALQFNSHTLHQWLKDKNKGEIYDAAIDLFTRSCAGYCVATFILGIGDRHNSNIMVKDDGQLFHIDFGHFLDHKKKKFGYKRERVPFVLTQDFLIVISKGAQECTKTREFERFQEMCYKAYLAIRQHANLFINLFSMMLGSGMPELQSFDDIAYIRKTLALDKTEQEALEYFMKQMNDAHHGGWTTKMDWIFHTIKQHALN
# T1 sequence (P27986 whole entry partner, canonical isoform): as the sequence (P27986 whole entry partner, canonical isoform) above
Selectivity versus PI3Kalpha (PI3K-alpha),IC50 (PI3K-delta) [nM],Compound
>10,< 1,"CCC(=O)N1CC[C@H](Nc2ncnc3c2nc(-c2cnn(-c4ccccc4)c2C)n3C)C1 [Compound 3-11, 9-methyl-8-(5-methyl-1-phenyl-1H-pyrazol-4-yl)-N-[(3S)-1-propanoylpyrrolidin-3-yl]-9H-purin-6-amine]"
>10,3.5,"CCC1CN(C(=O)C2CC2)CC1Nc1ncnc2c1nc(-c1cnc(C)nc1)n2CC (single isomer, unassigned) [Compound 3-20, N-[(3R,4S or 3S,4R)-1-(cyclopropylcarbonyl)-4-ethylpyrrolidin-3-yl]-9-ethyl-8-(2-methylpyrimidin-5-yl)-9H-purin-6-amine]"
>10,< 1,"CCn1c(-c2cnc(C)nc2)nc2c(N[C@H]3CCN(C(=O)C4CC(O)C4)C3)ncnc21 (mixture of isomers) [Compound 2-63, (cis and trans)-3-{[(3S)-3-{[9-ethyl-8-(2-methylpyrimidin-5-yl)-9H-purin-6-yl]amino}pyrrolidin-1-yl]carbonyl}cyclobutanol]"
>10,39,"CCn1c(-c2cnc(C)nc2)nc2c(N[C@H]3C[C@H](c4nnc(C)o4)N(C(=O)C4CC4)C3)ncnc21 [Compound 15-14, N-[(3S,5R)-1-(cyclopropylcarbonyl)-5-(5-methyl-1,3,4-oxadiazol-2-yl)pyrrolidin-3-yl]-9-ethyl-8-(2-methylpyrimidin-5-yl)-9H-purin-6-amine]"
>10,2.8,"CCn1c(-c2cnc(C)nc2)nc2c(N[C@H]3CCN(C(=O)c4cocn4)C3)ncnc21 [Compound 2-72, 9-ethyl-8-(2-methylpyrimidin-5-yl)-N-[(3S)-1-(1,3-oxazol-4-ylcarbonyl)pyrrolidin-3-yl]-9H-purin-6-amine]"
>10,< 1,"CCn1c(-c2cnc(C)nc2)nc2c(N[C@H]3CCN(C(=O)C4CC(C)(C)C4)C3)ncnc21 [Compound 2-59, N-{(3S)-1-[(3,3-dimethylcyclobutyl)carbonyl]pyrrolidin-3-yl}-9-ethyl-8-(2-methylpyrimidin-5-yl)-9H-purin-6-amine]"
>10,31,"CCNC(=O)c1nc2c(N[C@H]3CCN(C(=O)C4CC4)C3)ncnc2n1CC [Compound 6-19, 6-{[(3S)-1-(cyclopropylcarbonyl)pyrrolidin-3-yl]amino}-N,9-diethyl-9H-purine-8-carboxamide]"
>10,1.4,"CCn1c(-c2cnc(C)nc2)nc2c(N[C@H]3CCN(C(=O)C4CCOC(C)(C)C4)C3)ncnc21 (mixture of isomers) [Compound 2-20, ((S and R)-2,2-dimethyltetrahydro-2H-pyran-4-yl)((S)-3-((9-ethyl-8-(2-methylpyrimidin-5-yl)-9H-purin-6-yl)amino)pyrrolidin-1-yl)methanone]"
>10,57,"CCC(=O)N1CC(Nc2ncnc3c2nc(-c2cnn(CC)c2C)n3C)C1 [Compound 2-45, 8-(1-ethyl-5-methyl-1H-pyrazol-4-yl)-9-methyl-N-(1-propanoylazetidin-3-yl)-9H-purin-6-amine]"
>10,< 1,"CCC(=O)N1CC[C@H](Nc2ncnc3c2nc(-c2cnc(OC)c(C)c2)n3CC)C1 [Compound 2-9, (S)-1-(3-((9-ethyl-8-(6-methoxy-5-methylpyridin-3-yl)-9H-purin-6-yl)amino)pyrrolidin-1-yl)propan-1-one]"
>10,12,"CCn1c(-c2cnc(C)nc2)nc2c(N[C@H]3C[C@H](CO)N(C(=O)OC(C)(C)C)C3)ncnc21 [Compound 1-20, tert-butyl (2R,4S)-4-{[9-ethyl-8-(2-methylpyrimidin-5-yl)-9H-purin-6-yl]amino}-2-(hydroxymethyl)pyrrolidine-1-carboxylate]"
